Measured values as given in PubChem BioAssay (NCI).
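All cell lines were grown in 96-well plates and treated with compound for 48 hours. GI50: concentration for 50% inhibition of growth. At the TGI there is no net growth.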

Columns and labels:
Assay in all cases: DTP human tumour cell line panel, 48 h
[1] = test system: CAKI-1 renal
[2] = test system: HCT-15 colon
[3] = test system: HT29 colon
[4] = test system: NCI-H226 lung
[5] = test system: SF-295 CNS
[6] = test system: SK-MEL-2 melanoma
[7] = test system: SK-MEL-28 melanoma
[8] = test system: SK-OV-3 ovarian
[9] = test system: SR leukemia
[10] = test system: MALME-3M melanoma

| Compound | GI50 [1] [µM] | TGI [1] [µM] | GI50 [2] [µM] | TGI [2] [µM] | GI50 [3] [µM] | TGI [3] [µM] | GI50 [4] [µM] | TGI [4] [µM] | GI50 [5] [µM] | TGI [5] [µM] | GI50 [6] [µM] | TGI [6] [µM] | GI50 [7] [µM] | TGI [7] [µM] | GI50 [8] [µM] | TGI [8] [µM] | TGI [9] [µM] | GI50 [10] [µM] | TGI [10] [µM] | GI50 [9] [nM] |
| --- | --- | --- | --- | --- | --- | --- | --- | --- | --- | --- | --- | --- | --- | --- | --- | --- | --- | --- | --- | --- |
| N#Cc1c(N)nc(N2CCOCC2)c(C#N)c1-c1ccc(Cl)cc1Cl | 18.6 | 46.8 | 15.5 | 56.4 | 16.4 | 39.3 | 26.9 | > 100 | 19 | 51.8 | 13.6 | 32.4 | 18.4 | 53.1 | 22.2 | 91.1 |  |  |  |  |
| COC(=O)CCSC(=O)Nc1ccccc1Cl |  | > 100 |  | > 100 |  | > 100 |  | > 100 |  | > 100 |  | > 100 |  | > 100 |  |  | > 100 |  |  |  |
| CC(C)=NO.CC(C)=NO.CC(C)=NO.CC(C)=NO.[Ti] | > 100 | > 100 | > 100 | > 100 | > 100 | > 100 | > 100 | > 100 | > 100 | > 100 | > 100 | > 100 | > 100 | > 100 | > 100 | > 100 |  | > 100 | > 100 |  |
| CCOC(=O)C1C(=O)C(=O)N2CCc3c([nH]c4ccccc34)C12 (stereo not drawn) |  | > 100 |  | > 100 |  | > 100 |  |  |  | > 100 |  | > 100 |  | > 100 |  | > 100 | > 100 |  | > 100 |  |
| CC(=O)Nc1ccc(C(=O)NN2C(=O)CSC2c2ccccc2)cc1 (stereo not drawn) |  |  |  | > 100 |  | > 100 |  | > 100 |  | > 100 |  | > 100 |  | > 100 |  | > 100 |  |  |  |  |
| CCNC(=O)O/N=C1/C=C2CC[C@@H]3C(CC[C@@]4(C)C3CC[C@@H]4OC(=O)NCC)[C@@]2(C)CC1 (stereo partly drawn) |  | 16.9 |  | 11.2 |  | 10.3 |  |  |  | 7.03 |  | 5.1 |  | 14.6 |  | 7.8 |  |  |  |  |
| O=[N+]([O-])c1cccc(C2=NOC3CCCC23)c1 (stereo not drawn) |  | > 100 |  | > 100 |  | > 100 |  | > 100 |  | > 100 |  | > 100 |  | > 100 |  | > 100 |  |  | > 100 |  |
| Cn1nc(-c2ccccc2)c(C(=O)/C=C/c2ccccc2)c(N2CCCC2)c1=O |  |  |  | 72.5 |  | 26.9 |  |  |  |  |  |  |  | 32.8 |  | 85.9 |  |  |  |  |
| COc1cccc2c(Nc3ccc(C(=O)NCCN4CCNCC4)cc3)cc(-c3ccccc3)nc12 | > 100 | > 100 | 57.8 | > 100 | 20.7 | > 100 | > 100 | > 100 | 33.1 | > 100 | 19.9 | 51.7 | 19 | 64.7 | > 100 | > 100 |  | 21.6 | 47.6 |  |
| CN(C)c1ccc(/C=C2\Cc3ccccc3C2=O)cc1Br |  | > 100 |  | > 100 |  | > 100 |  |  |  | > 100 |  | > 100 |  | > 100 |  | > 100 |  |  | > 100 |  |
| Brc1ccc2c(c1)-c1ccccc1C1=NCCN12 | 1.52 | 7.92 | 0.68 | 10.8 | 0.478 | 3.33 |  |  | 0.984 | 4 | 1.87 | 4.18 | 1.8 | 3.63 | 2.88 | 16.6 | 3.83 | 1.35 | 2.97 | 753 |
| CC1CC2C(=O)N(c3ccccc3)C(=O)C2c2[nH]c3ccccc3c21 (stereo not drawn) |  |  |  | > 100 |  | > 100 |  |  |  | > 100 |  |  |  | > 100 |  | 36.7 | > 100 |  | > 100 |  |
| O=[N+]([O-])C1(CO)COC(CCc2ccccc2)OC1 (stereo not drawn) |  |  |  | > 100 |  | > 100 |  |  |  | > 100 |  | > 100 |  | > 100 |  | > 100 | > 100 |  | > 100 |  |
| COC(=O)c1ccccc1NCc1cc(O)ccc1O |  | 44.6 |  | 41.1 |  | 44.2 |  | 65.3 |  | 33.3 |  | 58.3 |  | 35.4 |  | > 100 |  |  | 36.3 |  |
| CC(=O)OCC1OC(OC(C)=O)C(NC#N)C(OC(C)=O)C1OC(C)=O (stereo not drawn) |  | > 100 |  | > 100 |  | > 100 |  |  |  | > 100 |  | > 100 |  | > 100 |  | > 100 | > 100 |  | > 100 |  |
| Cc1nc(-c2cccnc2)sc1C(=O)/C=C/c1ccc(Cl)cc1Cl |  | > 100 |  | > 100 |  | > 100 |  | > 100 |  | > 100 |  | > 100 |  | > 100 |  | > 100 |  |  | > 100 |  |
| Cc1cc2c(SCc3ccccc3Cl)nc(N)nc2nc1C |  | > 100 |  | > 100 |  | > 100 |  |  |  | > 100 |  | > 100 |  | > 100 |  | > 100 | > 100 |  | > 100 |  |
